Source: US4036834A, “Derivatives of 7-(α-hydroxy-substituted pyridyl carboxamido-α p h Δ^3 -cephem-4-carboxylic acid” (Yamanouchi Pharmaceutical Co., Ltd., priority 1974, dated 1977)
Values after ≈ are worked out from the molar mass of the structure shown. Read-outs that look alike come from different tables or passages of the source.

Assays:
[1] = system: Proteus vulgaris OXK US; test: MIC against Proteus vulgaris OXK US; type: cell-based; conditions: Proteus vulgaris OXK US; read-out: MIC
Description: (§1) Now, for illustrating the excellent pharmacological effects of the compounds of this invention, the values of MIC (γ/ml) of the compounds against various bacteria are shown in the following table, the compounds of this invention are shown by example numbers.
1: Proteus vulgaris OXK US

[2] = system: proteus vulgaris OX 19US; test: MIC against proteus vulgaris OX 19US; type: cell-based; conditions: OX19US; proteus vulgaris OX 19US; read-out: MIC
Description: as §1
2. proteus vulgaris OX 19US

[3] = system: proteus mirabilis IFM OM-19; test: MIC against proteus mirabilis IFM OM-19; type: cell-based; conditions: IFMOM19
Description: as §1
3. proteus mirabilis IFM OM-19

[4] = system: pseudomonas aeruginosa ATCC 8689; test: MIC against pseudomonas aeruginosa ATCC 8689; type: cell-based; conditions: Pseudomonas aeruginosa, ATCC8689
Description: as §1
4: pseudomonas aeruginosa ATCC 8689

[5] = system: pseudomonas aeruginosa 99 (Gentamycin resistant); test: MIC against pseudomonas aeruginosa 99 (Gentamycin resistant); type: cell-based; conditions: Pseudomonas aeruginosa
Description: as §1
5: pseudomonas aeruginosa 99 (Gentamycin resistant)

[6] = system: Pseudomonas ovalis IAM 1002; test: MIC against Pseudomonas ovalis IAM 1002; type: cell-based; conditions: Pseudomonas putida, IAM1002
Description: as §1
6: Pseudomonas ovalis IAM 1002

[7] = system: escherichia coli Kauffman 0-1; test: MIC against escherichia coli Kauffman 0-1; type: cell-based
Description: as §1
7: escherichia coli Kauffman 0-1

[8] = system: Klebsiella pneumoniae ATCC 10031; test: MIC against Klebsiella pneumoniae ATCC 10031; type: cell-based; conditions: ATCC10031
Description: as §1
8: Klebsiella pneumoniae ATCC 10031

[9] = system: salmonella typhi H901W; test: microbe, parasite or virus in culture; type: cell-based; conditions: Salmonella enterica
[10] = system: salmonella enteritidis; test: MIC against salmonella enteritidis; type: cell-based; conditions: Salmonella enterica; salmonella enteritidis; read-out: MIC
Description: as §1
10: salmonella enteritidis

[11] = system: Shigella flexnori 2a 1675; test: MIC against Shigella flexnori 2a 1675; type: cell-based; conditions: 2A1675
Description: as §1

[12] = system: Shigella sonnei II 37148; test: MIC against Shigella sonnei II 37148; type: cell-based; conditions: II37148
Description: as §1

[13] = system: bacillus megatherium 10778; test: MIC against bacillus megatherium 10778; type: cell-based; conditions: bacillus megatherium 10778; read-out: MIC
Description: as §1

[14] = system: Bacillus subtilis ATCC 6633; test: MIC against Bacillus subtilis ATCC 6633; type: cell-based; conditions: ATCC6633; Bacillus subtilis ATCC 6633; read-out: MIC
Description: as §1
14: Bacillus subtilis ATCC 6633

[15] = system: micrococcus flavus ATCC 10240; test: MIC against micrococcus flavus ATCC 10240; type: cell-based; conditions: ATCC10240; micrococcus flavus ATCC 10240; read-out: MIC
Description: as §1

[16] = system: staphylococcus aureus 209P; test: MIC against staphylococcus aureus 209P; type: cell-based; conditions: read-out: MIC
Description: as §1
16: staphylococcus aureus 209P

[17] = system: staphylococcus Shimanishi; test: MIC against staphylococcus Shimanishi; type: cell-based
Description: as §1
17. staphylococcus Shimanishi

[18] = system: Staphylococcus Onuma; test: MIC against Staphylococcus Onuma; type: cell-based
Description: as §1

[19] = water solubility, naked-eye observation of solutions; type: physicochemical
Description: Then, the experimental results showing the excellent water solubility of the compounds of this invention are illustrated in the following table, the results being the observation results by the naked eyes of the solutions thereof in each concentration as shown in the table.

Compound	MIC [1]	MIC [2]	MIC [3]	MIC [4]	MIC [5]	MIC [6]	MIC [9]	MIC [10]	MIC [11]	MIC [12]	MIC [13]	MIC [14]	MIC [15]	MIC [16]	water solubility (appearance of solution by the naked eyes) ([19]; concentration 1%)	water solubility (appearance of solution by the naked eyes) ([19]; concentration 5%)	water solubility (appearance of solution by the naked eyes) ([19]; concentration 10%)	water solubility (appearance of solution by the naked eyes) ([19]; concentration 20%)	other results
Cc1nc(S)cc(SCC2=C(C(=O)O)N3C(=O)[C@@H](NC(=O)[C@H](NC(=O)c4cnccc4O)c4ccccc4)[C@H]3SC2)n1 [Example 2, 7-[D-α-(4-hydroxynicotinoylamido)-α-phenylacetamido]-3-(2-methyl-4-mercaptopyrimidin-6-yl)thiomethyl-Δ ^3-cephem-4-carboxylicacid]	0.19 mg/L (≈ 0.304 µM)	1.56 mg/L (≈ 2.5 µM)	0.39 mg/L (≈ 0.624 µM)	12.5 mg/L (≈ 20 µM)	12.5 mg/L (≈ 20 µM)	12.5 mg/L (≈ 20 µM)	0.19 mg/L (≈ 0.304 µM)	0.19 mg/L (≈ 0.304 µM)	12.5 mg/L (≈ 20 µM)	12.5 mg/L (≈ 20 µM)	0.19 mg/L (≈ 0.304 µM)	0.39 mg/L (≈ 0.624 µM)	3.13 mg/L (≈ 5.01 µM)	0.39 mg/L (≈ 0.624 µM)	clear	clear	clear	slightly turbid	MIC ([7]; escherichia coli Kauffman 0-1, read-out: MIC): 6.25 mg/L (≈ 10 µM); MIC ([8]; Klebsiella pneumoniae ATCC 10031, read-out: MIC): 3.13 mg/L (≈ 5.01 µM); MIC ([17]; staphylococcus Shimanishi, read-out: MIC): 3.13 mg/L (≈ 5.01 µM); MIC ([18]; Staphylococcus Onuma, read-out: MIC): 6.25 mg/L (≈ 10 µM)
Cc1c(S)sc(SCC2=C(C(=O)O)N3C(=O)[C@@H](NC(=O)[C@H](NC(=O)c4cnccc4O)c4ccccc4)[C@H]3SC2)c(C)c1=O [Example 3, 7-[D-α-(4-hydroxynicotinoylamido)-α-phenylacetamido]-3-(3,5-dimethyl-6-mercapto-4-oxo-4H-thiopyran-2-yl)thiomethyl-Δ^3-cephem-4-carboxylic acid]	0.19 mg/L (≈ 0.283 µM)	0.39 mg/L (≈ 0.581 µM)	0.78 mg/L (≈ 1.16 µM)	12.5 mg/L (≈ 18.6 µM)	12.5 mg/L (≈ 18.6 µM)	6.25 mg/L (≈ 9.32 µM)	3.13 mg/L (≈ 4.67 µM)	0.78 mg/L (≈ 1.16 µM)	6.25 mg/L (≈ 9.32 µM)	12.5 mg/L (≈ 18.6 µM)	0.19 mg/L (≈ 0.283 µM)	0.78 mg/L (≈ 1.16 µM)	1.56 mg/L (≈ 2.33 µM)	1.56 mg/L (≈ 2.33 µM)	clear	clear	clear	clear	MIC ([7]; Escherichia coli): 12.5 mg/L (≈ 18.6 µM); MIC ([8]; Klebsiella pneumoniae): 12.5 mg/L (≈ 18.6 µM); MIC ([17]; Staphylococcus): 6.25 mg/L (≈ 9.32 µM); MIC ([18]; Staphylococcus): 12.5 mg/L (≈ 18.6 µM)
